T1: Solute carrier organic anion transporter family member 1A1 (Mus musculus, UniProt Q9QXZ6)
T1 sequence (Q9QXZ6 whole entry): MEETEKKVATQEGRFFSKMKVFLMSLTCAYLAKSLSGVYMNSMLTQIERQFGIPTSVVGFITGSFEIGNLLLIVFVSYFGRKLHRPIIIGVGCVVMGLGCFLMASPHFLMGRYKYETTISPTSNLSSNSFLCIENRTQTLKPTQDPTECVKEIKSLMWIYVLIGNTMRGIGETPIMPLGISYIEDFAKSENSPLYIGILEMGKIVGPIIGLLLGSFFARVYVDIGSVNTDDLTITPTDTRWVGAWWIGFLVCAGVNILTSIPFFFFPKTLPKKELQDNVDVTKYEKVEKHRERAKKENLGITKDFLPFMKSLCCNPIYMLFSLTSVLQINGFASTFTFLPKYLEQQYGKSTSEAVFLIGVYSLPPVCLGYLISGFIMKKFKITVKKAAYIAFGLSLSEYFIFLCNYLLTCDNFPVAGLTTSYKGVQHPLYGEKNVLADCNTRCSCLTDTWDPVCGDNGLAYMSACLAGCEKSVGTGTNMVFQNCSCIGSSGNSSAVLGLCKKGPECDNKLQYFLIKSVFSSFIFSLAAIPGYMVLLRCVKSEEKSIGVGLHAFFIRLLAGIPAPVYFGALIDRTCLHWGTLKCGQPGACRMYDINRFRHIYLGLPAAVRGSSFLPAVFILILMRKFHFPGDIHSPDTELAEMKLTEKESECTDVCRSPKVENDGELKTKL


Key:
[1] = target: T1, Solute carrier organic anion transporter family member 1A1; assay: (§1) TP_TRANSPORTER: uptake in Xenopus laevis oocytes; type: functional, cell-based; conditions: oocyte
[2] = substrate: C[C@]12CC[C@@H]3c4ccc(OS(=O)(=O)O)cc4CC[C@H]3[C@@H]1CCC2=O; assay: as §1; type: functional, cell-based, Oocyte

| Molecule | Activity [1] | Km [2] [µM] |
| --- | --- | --- |
| O=C1OC(c2ccc(O)c(S(=O)(=O)[O-])c2)(c2ccc(O)c(S(=O)(=O)[O-])c2)c2c(Br)c(Br)c(Br)c(Br)c21.[Na+].[Na+] [SULFOBROMOPHTHALEIN SODIUM] | substrate [+] |  |
| GADOXETATE | substrate [+] |  |
| C[C@@H]1O[C@@H](O[C@H]2C[C@@H](O)[C@]3(CO)[C@H]4[C@H](O)C[C@]5(C)[C@@H](C6=CC(=O)OC6)CC[C@]5(O)[C@@H]4CC[C@]3(O)C2)[C@H](O)[C@H](O)[C@H]1O [OUABAIN] | substrate [+] |  |
| Solute carrier organic anion transporter family member 1A1 (Mus musculus) (protein) MEETEKKVATQEGRFFSKMKVFLMSLTCAYLAKSLSGVYMNSMLTQIERQFGIPTSVVGFITGSFEIGNLLLIVFVSYFGRKLHRPIIIGVGCVVMGLGCFLMASPHFLMGRYKYETTISPTSNLSSNSFLCIENRTQTLKPTQDPTECVKEIKSLMWIYVLIGNTMRGIGETPIMPLGISYIEDFAKSENSPLYIGILEMGKIVGPIIGLLLGSFFARVYVDIGSVNTDDLTITPTDTRWVGAWWIGFLVCAGVNILTSIPFFFFPKTLPKKELQDNVDVTKYEKVEKHRERAKKENLGITKDFLPFMKSLCCNPIYMLFSLTSVLQINGFASTFTFLPKYLEQQYGKSTSEAVFLIGVYSLPPVCLGYLISGFIMKKFKITVKKAAYIAFGLSLSEYFIFLCNYLLTCDNFPVAGLTTSYKGVQHPLYGEKNVLADCNTRCSCLTDTWDPVCGDNGLAYMSACLAGCEKSVGTGTNMVFQNCSCIGSSGNSSAVLGLCKKGPECDNKLQYFLIKSVFSSFIFSLAAIPGYMVLLRCVKSEEKSIGVGLHAFFIRLLAGIPAPVYFGALIDRTCLHWGTLKCGQPGACRMYDINRFRHIYLGLPAAVRGSSFLPAVFILILMRKFHFPGDIHSPDTELAEMKLTEKESECTDVCRSPKVENDGELKTKL |  | 5 |

Source: ChEMBL document CHEMBL2073910, “Molecular cloning and functional characterization of the mouse organic-anion-transporting polypeptide 1 (Oatp1) and mapping of the gene to chromosome X” (Biochem J, 2000)
